Measurements reported in patent US9771334B2, “Triketone compound and preparation method and use thereof” (SHANDONG CYNDA CHEMICAL CO., LTD., priority 2013, dated 2017).

Columns and labels:
Assay type in all cases: in vivo
echinochloa crusgalli = test: Herbicidal activity, pot culture method (primary and secondary screening test); details: sprayed at 3-leaf stage; for inhibition ratio, Echinochloa crusgalli: investigated 15 days later; for herbicidal activity inhibition ratio (%), Echinochloa crusgalli: primary screening, pot culture, 150 g/ha, result 15 days later
Method in brief: (§1)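 Inhibition ratio (%) was scored 15 days after post-emergence spraying of 3-leaf-stage weeds grown in pots of soil:seedling matrix (1:2). Dose was 150 g/ha from a 0.2 g/L DMF/water solution applied by spray tower. The secondary screening used the same method at a reduced dose.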

digitaria sanguinalis = test: as above; details: sprayed at 3-leaf stage; for inhibition ratio, Digitaria sanguinalis: investigated 15 days later; for herbicidal activity inhibition ratio (%), Digitaria sanguinalis: primary screening, pot culture, 150 g/ha, result 15 days later
Method in brief: as §1

setaria viridis = test: as above; details: sprayed at 3-leaf stage; for inhibition ratio, Setaria viridis: investigated 15 days later; for herbicidal activity inhibition ratio (%), Setaria viridis: primary screening, pot culture, 150 g/ha, result 15 days later
Method in brief: as §1

amaranthus retroflexus = test: as above; details: sprayed at 3-leaf stage; for inhibition ratio, Amaranthus retroflexus: investigated 15 days later; for herbicidal activity inhibition ratio (%), Amaranthus retroflexus: primary screening, pot culture, 150 g/ha, result 15 days later
Method in brief: as §1

eclipta prostrata = test: as above; details: sprayed at 3-leaf stage; for inhibition ratio, Eclipta prostrata: investigated 15 days later; for herbicidal activity inhibition ratio (%), Eclipta prostrata: primary screening, pot culture, 150 g/ha, result 15 days later
Method in brief: as §1

abutilon theophrasti = test: as above; details: sprayed at 3-leaf stage; for inhibition ratio, Abutilon theophrasti: investigated 15 days later; for herbicidal activity inhibition ratio (%), Abutilon theophrasti: primary screening, pot culture, 150 g/ha, result 15 days later
Method in brief: as §1

maize = test: Crop safety test (pot culture method); details: for inhibition ratio, Maize (crop safety): plants with about 4-5 leaves, investigated 15 days later
Excerpt: (§2) This test example is for describing crop safety of the compound with a structure shown in Formula (1). Crop safety test method (pot culture method): The test targets are wheat and maize. Take flowerpots with an inner diameter of 12 cm, put composite soil (vegetable garden soil:seedling matrix=1:2, v/v) into them till ¾ of flowerpot height, directly sow the crop seeds (budding rate>85%), cover them with 0.2 cm thick soil, and keep the plants for future use when they grow to have about 4-5 leaves. Each compound is dissolved in N,N-dimethylformamide at doses of 75 g/ha or 150 g/ha and diluted with distilled water containing 0.1% tween-80 emulsifier to form 0.1 g/L (75 g/ha) solution and 0.2 g/L (150 g/ha) solution respectively. The solutions are sprayed through an automatic spray tower. After the solutions on weed leaves are dried in the air, the flowerpots are moved into a greenhouse for cultivation. The result is investigated 15 days later.

wheat = test: Crop safety test (pot culture method); details: plants with about 4-5 leaves, investigated 15 days later
Excerpt: as §2

SMILES | inhibition ratio, Echinochloa crusgalli (echinochloa crusgalli; dose 37.5 g/ha) [%] | inhibition ratio, Echinochloa crusgalli (echinochloa crusgalli; dose 75 g/ha) [%] | herbicidal activity inhibition ratio (%), Echinochloa crusgalli (echinochloa crusgalli) [%] | inhibition ratio, Digitaria sanguinalis (digitaria sanguinalis; dose 37.5 g/ha) [%] | inhibition ratio, Digitaria sanguinalis (digitaria sanguinalis; dose 75 g/ha) [%] | herbicidal activity inhibition ratio (%), Digitaria sanguinalis (digitaria sanguinalis) [%] | inhibition ratio, Setaria viridis (setaria viridis; dose 37.5 g/ha) [%] | inhibition ratio, Setaria viridis (setaria viridis; dose 75 g/ha) [%] | herbicidal activity inhibition ratio (%), Setaria viridis (setaria viridis) [%] | inhibition ratio, Amaranthus retroflexus (amaranthus retroflexus; dose 37.5 g/ha) [%] | inhibition ratio, Amaranthus retroflexus (amaranthus retroflexus; dose 75 g/ha) [%] | herbicidal activity inhibition ratio (%), Amaranthus retroflexus (amaranthus retroflexus) [%] | inhibition ratio, Eclipta prostrata (eclipta prostrata; dose 37.5 g/ha) [%] | inhibition ratio, Eclipta prostrata (eclipta prostrata; dose 75 g/ha) [%] | herbicidal activity inhibition ratio (%), Eclipta prostrata (eclipta prostrata) [%] | inhibition ratio, Abutilon theophrasti (abutilon theophrasti; dose 37.5 g/ha) [%] | inhibition ratio, Abutilon theophrasti (abutilon theophrasti; dose 75 g/ha) [%] | herbicidal activity inhibition ratio (%), Abutilon theophrasti (abutilon theophrasti) [%] | inhibition ratio, Maize (crop safety) (maize; dose 75 g/ha) [%] | inhibition ratio, Maize (crop safety) (maize; dose 150 g/ha) [%] | further results
Cn1c(=O)n(-c2ccccc2Cl)c(=O)c2cc(C(=O)C3=C(O)CC(C)(C)CC3=O)ccc21 [Compound 6] | 70 | 75 | 80 | 60 | 70 | 75 | 60 | 60 | 90 | 70 | 75 | 80 | 70 | 70 | 85 | 70 | 70 | 100 | 0 | 15 | inhibition ratio, Wheat (crop safety) (wheat; dose 75 g/ha): 0%; inhibition ratio, Wheat (crop safety) (wheat; dose 150 g/ha): 0%
Cc1ccccc1-n1c(=O)c2cc(C(=O)C3=C(O)CCCC3=O)ccc2n(C)c1=O [Compound 20] | 50 | 60 | 100 | 40 | 70 | 100 | 50 | 70 | 100 | 50 | 60 | 100 | 50 | 50 | 95 | 30 | 85 | 100 | 0 | 15 | inhibition ratio, Wheat (crop safety) (wheat; dose 75 g/ha): 0%; inhibition ratio, Wheat (crop safety) (wheat; dose 150 g/ha): 0%
Cc1ccccc1-n1c(=O)c2cc(C(=O)C3=C(O)CC(C)(C)CC3=O)ccc2n(C)c1=O [Compound 21] | 70 | 75 | 85 | 70 | 75 | 85 | 70 | 75 | 100 | 80 | 90 | 100 | 40 | 50 | 95 | 70 | 100 | 85 | 0 | 15 | inhibition ratio, Wheat (crop safety) (wheat; dose 75 g/ha): 0%; inhibition ratio, Wheat (crop safety) (wheat; dose 150 g/ha): 0%
Cn1c(=O)n(-c2cccc(Br)c2)c(=O)c2cc(C(=O)C3=C(O)CCCC3=O)ccc21 [Compound 23] | 20 | 20 | 85 | 20 | 65 | 30 | 30 | 50 | 45 | 100 | 100 | 95 | 100 | 100 | 50 | 100 | 100 | 85 | 0 | 0 | safety to maize fields (in words) (maize; dose 150 g/ha): highly safe; inhibition ratio, Wheat (crop safety) (wheat; dose 75 g/ha): 0%; inhibition ratio, Wheat (crop safety) (wheat; dose 150 g/ha): 5%
Cc1cccc(C)c1-n1c(=O)c2cc(C(=O)C3=C(O)CCCC3=O)ccc2n(C)c1=O [Compound 34] | 65 | 80 | 90 | 55 | 75 | 83 | 70 | 78 | 80 | 100 | 100 | 100 | 30 | 50 | 80 | 30 | 50 | 90 | 0 | 0 | safety to maize fields (in words) (maize; dose 150 g/ha): highly safe; inhibition ratio, Wheat (crop safety) (wheat; dose 75 g/ha): 0%; inhibition ratio, Wheat (crop safety) (wheat; dose 150 g/ha): 5%
CCc1ccccc1-n1c(=O)c2cc(C(=O)C3=C(O)CCCC3=O)ccc2n(C)c1=O [Compound 47] | 80 | 88 | 85 | 80 | 85 | 95 | 88 | 90 | 83 | 90 | 95 | 100 | 20 | 30 | 85 | 60 | 90 | 100 | 0 | 0 | safety to maize fields (in words) (maize; dose 150 g/ha): highly safe; inhibition ratio, Wheat (crop safety) (wheat; dose 75 g/ha): 0%; inhibition ratio, Wheat (crop safety) (wheat; dose 150 g/ha): 0%
